From ChEMBL document CHEMBL5154681, “Small Amphiphilic Peptides: Activity Against a Broad Range of Drug-Resistant Bacteria and Structural Insight into Membranolytic Properties” (J Med Chem, 2022)
≈ marks a conversion by molar mass, not a printed value. Calls of active or inactive are those of the source. The rule behind the calls is not given here. Bridge positions count the residues as written; N and C are the ends. Square brackets hold non-standard residues; d marks the D form. Peptide text beside a SMILES is read from it. * marks the point of attachment. Dip = N[C@H](C(=O)O)C(c1ccccc1)c1ccccc1; X1 = CC[C@H](C)CCCCC(=O)*; Dab = NCC[C@H](N)C(=O)O

Legend:
Bacillus cereus = assay: Antibacterial activity against Bacillus cereus ATCC 13061 incubated for 24 hrs by microtiter plate method; format: functional
Staphylococcus aureus [1] = assay: Antibacterial activity against Staphylococcus aureus ATCC 29213 incubated for 24 hrs by microtiter plate method; format: functional; details: Staphylococcus aureus, ATCC 29213, read-out: MIC
Escherichia coli [2] = assay: Bactericidal activity against Escherichia coli ATCC BAA-2452 assessed as reduction of bacterial growth at MIC by counting formed colonies; format: functional, organism-based; details: time <= 4.0 hrs, TDE = time-dependent effect
Escherichia coli [3] = assay: Bactericidal activity against Escherichia coli ATCC BAA-2452 assessed as reduction of bacterial growth at 4 times MIC by counting formed colonies; format: functional, organism-based; details: time <= 4.0 hrs, TDE = time-dependent effect
Enterococcus faecalis [4] = assay: Antibacterial activity against vancomycin-resistant Enterococcus faecalis ATCC 51575 incubated for 24 hrs by microtiter plate method; format: functional
Staphylococcus aureus [5] = assay: Antibacterial activity against methicillin resistant Staphylococcus aureus ATCC BAA-1556 incubated for 24 hrs by microtiter plate method; format: functional; details: Staphylococcus aureus, ATCC BAA-1556, 24 h, read-out: MIC
Lipid bilayer [6] = assay: Membrano-lytic effect in bacterial inner membrane mimic DOPC/DOPG (7:3) large unilamellar vesicles assessed as calcein leakage measured upto 100 mins for every 10 mins by multimode microplate reader assay; format: cell membranes; details: dose 5-50 µg/ml, DDE = dose-dependent effect
Enterococcus faecalis [7] = assay: Antibacterial activity against Enterococcus faecalis ATCC 29212 incubated for 24 hrs by microtiter plate method; format: functional
Staphylococcus aureus [8] = assay: Antibacterial activity against methicillin resistant Staphylococcus aureus ATCC BAA-1556 incubated for 24 hrs; format: functional
Lipid bilayer [9] = assay: Membrano-lytic effect in bacterial inner membrane mimic DOPC/DOPG (7:3) large unilamellar vesicles assessed as calcein leakage measured at 50 microg/ml, incubated for 100 mins by multimode microplate reader assay; format: cell membranes; details: dose 50.0 µg/ml
Staphylococcus aureus [10] = assay: Bactericidal activity against methicillin resistant Staphylococcus aureus ATCC BAA-1556 assessed as reduction of bacterial growth at MIC by counting formed colonies; format: functional, organism-based; details: time <= 4.0 hrs, TDE = time-dependent effect
Bacillus subtilis = assay: Antibacterial activity against Bacillus subtilis ATCC 6633 incubated for 24 hrs by microtiter plate method; format: functional
Staphylococcus aureus [11] = assay: Antibacterial activity against methicillin resistant Staphylococcus aureus ATCC BAA-1556 after 24 hrs in presence of 6 mM of NH4Cl by microtiter plate method; format: functional
Staphylococcus aureus [12] = assay: Antibacterial activity against methicillin resistant Staphylococcus aureus ATCC BAA-1556 after 24 hrs in presence of 2 mM of CaCl2 by microtiter plate method; format: functional
Enterococcus faecium [13] = assay: Antibacterial activity against Enterococcus faecium ATCC 27270 incubated for 24 hrs by microtiter plate method; format: functional
Staphylococcus aureus [14] = assay: Antibacterial activity against methicillin resistant Staphylococcus aureus ATCC BAA-1556 after 24 hrs in presence of 150 mM of NaCl by microtiter plate method; format: functional
Staphylococcus aureus [15] = assay: Bactericidal activity against methicillin resistant Staphylococcus aureus ATCC BAA-1556 assessed as reduction of bacterial growth at 4 times MIC by counting formed colonies; format: functional, organism-based; details: time <= 4.0 hrs, TDE = time-dependent effect
Lipid bilayer [16] = assay: Membrano-lytic effect in mammalian membrane mimic DOPC/cholesterol (10:1) large unilamellar vesicles assessed as calcein leakage measured at 50 microg/ml measured upto 100 mins for every 10 mins by multimode microplate reader assay; format: cell membranes; details: dose 50.0 µg/ml
Staphylococcus aureus [17] = assay: Bactericidal activity against methicillin resistant Staphylococcus aureus ATCC BAA-1556 assessed as time required for complete reduction of bacterial growth at MIC by counting formed colonies; format: functional
Staphylococcus aureus [18] = assay: Antibacterial activity against methicillin resistant Staphylococcus aureus ATCC BAA-1556 after 24 hrs in presence of fetal bovine serum by microtiter plate method; format: functional
Enterococcus faecium [19] = assay: Antibacterial activity against vancomycin-resistant Enterococcus faecium ATCC 700221 incubated for 24 hrs by microtiter plate method; format: functional
Streptococcus pneumoniae [20] = assay: Antibacterial activity against multidrug resistant […] ATCC 700677 incubated for 24 hrs by microtiter plate method; format: functional
Staphylococcus aureus [21] = assay: Antibacterial activity against methicillin resistant Staphylococcus aureus ATCC BAA-1556 after 24 hrs in presence of 1 mM of by microtiter plate method; format: functional
Staphylococcus aureus [22] = assay: Antibacterial activity against methicillin resistant Staphylococcus aureus ATCC BAA-1556 after 24 hrs in presence of 4.5 mM of KCl by microtiter plate method; format: functional
Streptococcus pneumoniae [23] = assay: Antibacterial activity against […] ATCC 49619 incubated for 24 hrs by microtiter plate method; format: functional
Staphylococcus aureus [24] = assay: Bactericidal activity against methicillin resistant Staphylococcus aureus ATCC BAA-1556 assessed as time required for complete reduction of bacterial growth at 4 times MIC by counting formed colonies; format: functional
Acinetobacter baumannii = assay: Antibacterial activity against ciprofloxacin resistance Acinetobacter baumannii ATCC BAA1605 incubated for 24 hrs by microtiter plate method; format: functional
Escherichia coli [25] = assay: Antibacterial activity against Escherichia coli ATCC 25922 after 24 hrs in presence of 4.5 mM of KCl at by microtiter plate method; format: functional
Escherichia coli [26] = assay: Antibacterial activity against Escherichia coli ATCC 25922 after 24 hrs in presence of fetal bovine serum by microtiter plate method; format: functional
Escherichia coli [27] = assay: Antibacterial activity against Escherichia coli ATCC 25922 after 24 hrs in presence of 150 mM NaCl by microtiter plate method; format: functional
Escherichia coli [28] = assay: Antibacterial activity against Escherichia coli ATCC 25922 assessed as reduction in microbial growth after 24 hrs in presence of 6 mM of NH4Cl at by microtiter plate method; format: functional
Pseudomonas aeruginosa [29] = assay: Antibacterial activity against Pseudomonas aeruginosa ATCC 27883 incubated for 24 hrs by microtiter plate method; format: functional; details: Pseudomonas aeruginosa
Klebsiella pneumoniae [30] = assay: Antibacterial activity against Klebsiella pneumoniae ATCC 13883 […] incubated for 24 hrs by microtiter plate method; format: functional
Escherichia coli [31] = assay: Antibacterial activity against Escherichia coli ATCC 25922 after 24 hrs in presence of 1 mM of MgCl2 at by microtiter plate method; format: functional
Pseudomonas aeruginosa [32] = assay: Antibacterial activity against imipenem resistant Pseudomonas aeruginosa ATCC BAA-1744 incubated for 24 hrs by microtiter plate method; format: functional
Pseudomonas aeruginosa [33] = assay: Antibacterial activity against Pseudomonas aeruginosa ATCC 10145 incubated for 24 hrs by microtiter plate method; format: functional
Escherichia coli [34] = assay: Antibacterial activity against Escherichia coli ATCC 25922 incubated for 24 hrs; format: functional
Escherichia coli [35] = assay: Antibacterial activity against Escherichia coli ATCC 25922 incubated for 24 hrs by microtiter plate method; format: functional; details: Escherichia coli
Escherichia coli [36] = assay: Antibacterial activity against Escherichia coli NDM-1-resistant ATCC BAA-2452 incubated for 24 hrs by microtiter plate method; format: functional
Klebsiella pneumoniae [37] = assay: Antibacterial activity against carbapenem-resistant Klebsiella pneumoniae ATCC BAA-2470 incubated for 24 hrs by microtiter plate method; format: functional
Escherichia coli [38] = assay: Antibacterial activity against Escherichia coli ATCC 25922 after 24 hrs in presence of 2 mM CaCl2 at by microtiter plate method; format: functional
[39] = Selectivity ratio of MIC for antibacterial activity against Pseudomonas aeruginosa ATCC 10145 to MIC for antibacterial activity against imipenem-resistant Pseudomonas aeruginosa ATCC BAA-1744; format: functional
[40] = Hemolytic activity in human RBC assessed as hemolysis incubated for 2 hrs by spectrophotometer analysis; format: toxicity, cell-based, Erythrocyte; details: human red blood cells (erythrocytes)
[41] = Selectivity ratio of MIC for antibacterial activity against Klebsiella pneumoniae ATCC 13883 to MIC for antibacterial activity against carbapenem-resistant Klebsiella pneumoniae ATCC BAA-2470; format: functional

CCCCCCCCCC(=O)N[C@@H](Cc1c[nH]c2ccccc12)C(=O)N[C@H](CC(N)=O)C(=O)N[C@@H](CC(=O)O)C(=O)N[C@@H]1C(=O)NCC(=O)N[C@@H](CCCN)C(=O)N[C@@H](CC(=O)O)C(=O)N[C@H](C)C(=O)N[C@@H](CC(=O)O)C(=O)NCC(=O)N[C@H](CO)C(=O)N[C@@H]([C@H](C)CC(=O)O)C(=O)N[C@@H](CC(=O)c2ccccc2N)C(=O)O[C@@H]1C
MIC (Bacillus cereus): 1.5 µg/mL (≈ 0.926 µM)
MIC (Staphylococcus aureus [1]): 0.7 µg/mL (≈ 0.432 µM)
Activity (Escherichia coli [2]): Tde
Activity (Escherichia coli [3]): Tde
MIC (Enterococcus faecalis [4]): 12.5 µg/mL (≈ 7.71 µM)
MIC (Staphylococcus aureus [5]): 1.5 µg/mL (≈ 0.926 µM)
Activity (Lipid bilayer [6]): Dde
MIC (Enterococcus faecalis [7]): 6.25 µg/mL (≈ 3.86 µM)
MBC (Staphylococcus aureus [8]): 6.2 µg/mL (≈ 3.83 µM)
Activity (Lipid bilayer [9]): 27%
Activity (Staphylococcus aureus [10]): Tde
MIC (Bacillus subtilis): 0.7 µg/mL (≈ 0.432 µM)
MIC (Staphylococcus aureus [11]): 1.5 µg/mL
MIC (Staphylococcus aureus [12]): 3.1 µg/mL
MIC (Enterococcus faecium [13]): 1.5 µg/mL (≈ 0.926 µM)
MIC (Staphylococcus aureus [14]): 0.7 µg/mL
Activity (Staphylococcus aureus [15]): Tde
Activity (Lipid bilayer [16]): 5%
Activity (Staphylococcus aureus [17]): Active
MIC (Staphylococcus aureus [18]): 3.1 µg/mL
MIC (Enterococcus faecium [19]): 6.25 µg/mL (≈ 3.86 µM)
MIC (Streptococcus pneumoniae [20]): 12.5 µg/mL (≈ 7.71 µM)
MIC (Staphylococcus aureus [21]): 3.1 µg/mL
MIC (Staphylococcus aureus [22]): 1.5 µg/mL
MIC (Streptococcus pneumoniae [23]): 12.5 µg/mL (≈ 7.71 µM)
Activity (Staphylococcus aureus [24]): Active

CC[C@H](C)CCCCC(=O)N[C@@H](CCN)C(=O)N[C@H](C(=O)N[C@@H](CCN)C(=O)N[C@H]1CCNC(=O)[C@H]([C@@H](C)O)NC(=O)[C@H](CCN)NC(=O)[C@H](CCN)NC(=O)[C@H](CC(C)C)NC(=O)[C@@H](Cc2ccccc2)NC(=O)[C@H](CCN)NC1=O)[C@@H](C)O (X1-[Dab]T[Dab][Dab][Dab][dF]L[Dab][Dab]T; lactam 4-C)
MIC (Acinetobacter baumannii): 0.7 µg/mL (≈ 0.582 µM)
MIC (Escherichia coli [25]): 0.7 µg/mL
MIC (Staphylococcus aureus [1]): 0.7 µg/mL (≈ 0.582 µM)
Activity (Escherichia coli [2]): Tde
Activity (Escherichia coli [3]): Tde
MIC (Escherichia coli [26]): 3.1 µg/mL
MIC (Escherichia coli [27]): 0.7 µg/mL
Activity (Staphylococcus aureus [10]): Tde
MIC (Escherichia coli [28]): 0.7 µg/mL
MIC (Pseudomonas aeruginosa [29]; ATCC 27883, read-out: MIC): 0.7 µg/mL (≈ 0.582 µM)
MIC (Klebsiella pneumoniae [30]): 6.2 µg/mL (≈ 5.15 µM)
MIC (Escherichia coli [31]): 1.5 µg/mL
MIC (Pseudomonas aeruginosa [32]): 0.7 µg/mL (≈ 0.582 µM)
Activity (Staphylococcus aureus [15]): Tde
Activity (Staphylococcus aureus [17]): Active
MIC (Pseudomonas aeruginosa [33]): 0.7 µg/mL (≈ 0.582 µM)
MBC (Escherichia coli [34]): 3.1 µg/mL (≈ 2.58 µM)
MIC (Escherichia coli [35]; ATCC 25922, read-out: MIC): 0.7 µg/mL (≈ 0.582 µM)
MIC (Escherichia coli [36]): 0.7 µg/mL (≈ 0.582 µM)
MIC (Klebsiella pneumoniae [37]): 1.5 µg/mL (≈ 1.25 µM)
MIC (Escherichia coli [38]): 0.7 µg/mL
Activity (Staphylococcus aureus [24]): Active

N=C(N)NCCC[C@@H]1NC(=O)[C@H](CCCNC(=N)N)NC(=O)[C@H](C(c2ccccc2)c2ccccc2)NC(=O)[C@H](C(c2ccccc2)c2ccccc2)NC(=O)[C@H](C(c2ccccc2)c2ccccc2)NC(=O)[C@H](CCCNC(=N)N)NC1=O (cyclo([Dip][Dip][Dip]RRR))
MIC (Acinetobacter baumannii): 25 µg/mL (≈ 22 µM)
MIC (Bacillus cereus): 6.2 µg/mL (≈ 5.45 µM)
MIC (Staphylococcus aureus [1]): 3.1 µg/mL (≈ 2.72 µM)
MIC (Enterococcus faecalis [4]): 12.5 µg/mL (≈ 11 µM)
MIC (Staphylococcus aureus [5]): 3.1 µg/mL (≈ 2.72 µM)
MIC (Enterococcus faecalis [7]): 12.5 µg/mL (≈ 11 µM)
MIC (Bacillus subtilis): 3.1 µg/mL (≈ 2.72 µM)
MIC (Pseudomonas aeruginosa [29]; ATCC 27883, 24 h, read-out: MIC): 12.5 µg/mL (≈ 11 µM)
MIC (Klebsiella pneumoniae [30]): > 50 µg/mL
MIC (Enterococcus faecium [13]): 3.1 µg/mL (≈ 2.72 µM)
MIC (Pseudomonas aeruginosa [32]): 25 µg/mL (≈ 22 µM)
Ratio [39]: 2
MIC (Pseudomonas aeruginosa [33]): 50 µg/mL (≈ 43.9 µM)
MIC (Escherichia coli [35]; ATCC 25922, 24 h, read-out: MIC): 12.5 µg/mL (≈ 11 µM)
MIC (Escherichia coli [36]): 25 µg/mL (≈ 22 µM)
MIC (Enterococcus faecium [19]): 6.2 µg/mL (≈ 5.45 µM)
MIC (Streptococcus pneumoniae [20]): 25 µg/mL (≈ 22 µM)
MIC (Klebsiella pneumoniae [37]): 12.5 µg/mL (≈ 11 µM)
HC50 at 2 h [40]: 45 µg/mL
Ratio [41]: 2
MIC (Streptococcus pneumoniae [23]): 50 µg/mL (≈ 43.9 µM)
